Results on eight molecules are retold here after ChEMBL document CHEMBL1201862, “PubChem BioAssay data set” (2004).

Each structure is given as a SMILES string.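 Dose response: 5 concentrations. Exposure: 48 h. Format: 96-well plates. Endpoint: linear interpolation; highest concentration if not reached. GI50 = concentration required for 50% inhibition of growth.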 Active and inactive are the calls of the source. Rule as the data show it: active = GI50 up to about 1.1 µM and inactive = higher.

Among the test systems are HCC 2998; NCI-H23; SF-295; ACHN; DU-145; SK-MEL-2; SW-620; SR; SNB-75; HL-60; OVCAR-4; UACC-62; MCF7; KM12; SK-MEL-5; MDA-MB-231; MDA-N; SK-MEL-28; NCI-H226.
Experiment in all cases: NCI tumour cell line growth inhibition, 48 h

With `COP(=O)(/C=C/c1cc(C(=O)OCc2ccccc2)n(S(=O)(=O)c2ccccc2)c1)OC`, the GI50 with HCC 2998, in the assay with NCI-H23, in the assay on SF-295, with ACHN, with DU-145 and in the assay on SK-MEL-2 was > 100 µM (inactive) in each case. The GI50 was > 100 µM (inactive) with SW-620; > 10 µM (inactive) in the assay with SR; 57.1 µM (inactive) in the assay with SNB-75; > 100 µM (inactive) in the assay with HL-60; > 100 µM (inactive) in the assay with OVCAR-4; > 100 µM (inactive) in the assay with UACC-62. The GI50 in the assay on MCF7, in the assay with KM12, with SK-MEL-5, in the assay on MDA-MB-231, in the assay on MDA-N and in the assay with SK-MEL-28 was > 100 µM (inactive) each time.

With `COC(OC)C1OC(CO)C(n2cc(C)c(=O)[nH]c2=O)C1O` (stereo not drawn), the GI50 in the assay on HCC 2998, in the assay on NCI-H23, in the assay on SF-295, in the assay on ACHN, in the assay on DU-145 and in the assay on SK-MEL-2 was > 100 µM (inactive) in each case. Also, the GI50 in the assay with SW-620, in the assay on NCI-H226, in the assay with SR, in the assay with SNB-75, in the assay with OVCAR-4 and with UACC-62 was > 100 µM (inactive) each time. Also, the GI50 in the assay with MCF7, with KM12, with SK-MEL-5, with MDA-MB-231, in the assay with MDA-N and in the assay with SK-MEL-28 was > 100 µM (inactive) throughout.

Consider `CC(NC(=O)C(N)Cc1ccc(O)cn1)C(=O)O` (stereo not drawn), for which the GI50 in the assay with HCC 2998, in the assay on NCI-H23, with SF-295, in the assay on ACHN, in the assay with DU-145 and with SW-620 was > 100 µM (inactive) throughout. In addition, the GI50 in the assay on NCI-H226, in the assay on SR, in the assay on HL-60, in the assay on OVCAR-4, with MCF7 and in the assay with KM12 was > 100 µM (inactive) in each case. Further, the GI50 in the assay with SK-MEL-5, with MDA-MB-231, in the assay with MDA-N and with SK-MEL-28 was > 100 µM (inactive) in each case.

As for `COC(=O)[C@H](Cc1ccccc1)NC(=O)c1ccc(CNC(=O)/C=C/c2cccc(Oc3ccccc3)c2)cc1`, the GI50 in the assay on HCC 2998 is 35.4 µM (inactive); with NCI-H23 it was 36.7 µM (inactive); with SF-295 it was 44.1 µM (inactive); with ACHN it was 16.4 µM (inactive); in the assay on DU-145 it was 40.6 µM (inactive); in the assay on SK-MEL-2, 10.3 µM (inactive). Moreover, the GI50 in the assay on SW-620 is 9.98 µM (inactive); in the assay with NCI-H226, 52.7 µM (inactive); with SR, 6.79 µM (inactive); with SNB-75, 34.8 µM (inactive); in the assay on OVCAR-4, 34.4 µM (inactive); with UACC-62, 7.91 µM (inactive). Also, the GI50 is 12.8 µM (inactive) in the assay with MCF7; 40.8 µM (inactive) with KM12; 16.3 µM (inactive) with SK-MEL-5; 18.7 µM (inactive) in the assay on MDA-MB-231; 4.16 µM (inactive) in the assay with MDA-N; 9.33 µM (inactive) in the assay with SK-MEL-28.

Consider `CCOc1ncn(-c2ccc(NC(=S)Nc3cnccn3)cc2)n1`, for which the GI50 with NCI-H23, in the assay on SF-295, with ACHN, in the assay with DU-145, with SK-MEL-2 and with NCI-H226 was > 10 µM (inactive) in each case. Besides, the GI50 in the assay with SR, in the assay with SNB-75, in the assay on HL-60, in the assay on OVCAR-4, in the assay on UACC-62 and in the assay on MCF7 was > 10 µM (inactive) each time. For the same molecule, the GI50 in the assay on KM12, in the assay on MDA-MB-231 and in the assay on MDA-N was > 10 µM (inactive) each time.

As for `Cc1ccc(O)c(-c2cc(-c3cccc(Br)c3)c(C#N)c(N)n2)c1`, the GI50 is 23.3 µM (inactive) with HCC 2998; 33.7 µM (inactive) in the assay on NCI-H23; 22.9 µM (inactive) with SF-295; 18.2 µM (inactive) with ACHN; 29.6 µM (inactive) in the assay with DU-145; 20.7 µM (inactive) in the assay with SK-MEL-2. The GI50 was 23.8 µM (inactive) in the assay with SW-620; 17.5 µM (inactive) in the assay on NCI-H226; 19.3 µM (inactive) in the assay on SR; 30 µM (inactive) in the assay on HL-60; < 0.01 µM (active) in the assay on OVCAR-4; 16.4 µM (inactive) in the assay with UACC-62. The GI50 in the assay with MCF7 was 16.3 µM (inactive); with KM12 it was 19.2 µM (inactive); in the assay on SK-MEL-5, 19.2 µM (inactive); in the assay with MDA-MB-231, 20.4 µM (inactive); in the assay on MDA-N, 24.1 µM (inactive).

Take `CN(C)CCNC(=O)c1cccc2c(NC(CCC(N)=O)C(=O)O)c3ccccc3nc12` (stereo not drawn): the GI50 with HCC 2998 is 12.5 µM (inactive); in the assay on NCI-H23, 3.45 µM (inactive); in the assay on SF-295, 5.64 µM (inactive); in the assay with ACHN, 3.37 µM (inactive); in the assay on DU-145, 19.5 µM (inactive); in the assay with SK-MEL-2, 11.9 µM (inactive). The GI50 is 4.55 µM (inactive) in the assay on SW-620; 4.95 µM (inactive) with NCI-H226; > 100 µM (inactive) in the assay with SR; 13.4 µM (inactive) in the assay with SNB-75; 16.1 µM (inactive) in the assay on OVCAR-4; 19.9 µM (inactive) in the assay with UACC-62. In addition, the GI50 is 4.55 µM (inactive) with MCF7; 7.78 µM (inactive) in the assay on KM12; 10.6 µM (inactive) in the assay with SK-MEL-5; 7.66 µM (inactive) in the assay with MDA-MB-231; 8.73 µM (inactive) in the assay on MDA-N; 12.5 µM (inactive) in the assay on SK-MEL-28.

Turning to `O=C1N[C@H]2C(=O)c3c(Br)sc(Br)c3[C@H]2O1`, the GI50 in the assay with HCC 2998 was 11.7 µM (inactive); in the assay with NCI-H23, 6.44 µM (inactive); with SF-295 it was 18.5 µM (inactive); in the assay with ACHN, 6.78 µM (inactive); in the assay with DU-145 it was 13.2 µM (inactive); in the assay on SK-MEL-2, 14.7 µM (inactive). For the same molecule, the GI50 in the assay with SW-620 was 2.17 µM (inactive); with NCI-H226, 18.1 µM (inactive); in the assay with SR it was 1.87 µM (inactive); in the assay on SNB-75, 16.5 µM (inactive); in the assay with OVCAR-4, 15.3 µM (inactive); with UACC-62 it was 13.6 µM (inactive). The GI50 is 10.7 µM (inactive) in the assay on MCF7; 19 µM (inactive) with KM12; 14 µM (inactive) in the assay on SK-MEL-5; 8.83 µM (inactive) in the assay on MDA-MB-231; 7.01 µM (inactive) in the assay with MDA-N; 3.41 µM (inactive) in the assay on SK-MEL-28.
